{
  "source": "patent US6573253B2",
  "about": "“Methods for the administration of amifostine and related compounds” (MedImmune Oncology Inc., priority 1997, dated 2003)",
  "conditions": "human, in vivo",
  "note": "Where two headings read alike, the source gives them in different places.",
  "method": "All subjects were sequestered at the study site from the evening before the administration of the first dose of study drug until the final whole blood sample was obtained.\nBlood samples (5 to 7 mL each) were collected either by venipuncture or indwelling venous catheter (IVC) heparin lock. If IVC was used, it was inserted in the arm opposite the infusion site. […] For either line, the first 3 to 5 cc of blood were discarded (void volume) prior to blood collection.\nTo prevent further oxidation of WR-1065, PCA/EDTA was added to the samples prior to centrifugation. Because PCA/EDTA ruptures the cellular content of the blood, the samples were centrifuged for a longer period of time to prevent contamination/metabolism of the active metabolite. Consequently, only the clear supernatant (serum) was used for analysis of WR-1065. In contrast, no PCA/EDTA was added to the blood samples designated for analysis of the parent drug; therefore, plasma samples were prepared for analysis of the parent drug.\nWINNONLIN, the WINDOWS version of PCNONLIN, was used for the determination of pharmacokinetic parameters for each subject following each route of administration. Non-compartmental modelling of the data was performed.\nAUCs were calculated using extrapolation according to a straightline from the last non-zero point.\nThe AUCs were then analyzed using an analysis of variance (ANOVA) model with route, period and subject as variables. Sequence was not included in the model as this variable was uniquely determined by route and period. The confidence interval on the ratio of the subcutaneous or oral route to the intravenous route was calculated using the mean square error from the entire ANOVA model.",
  "data": [
    {"smiles": "NCCCNCCS", "note": "[WR-1065, 2-[3-aminopropylamino]ethanethiol]", "values": [
      {"measurement": "absolute bioavailability of the active metabolite", "value": 0.53},
      {"measurement": "time after administration at which concentration fell below 5 μM, WR-1065", "setting": "iv", "value": "approximately 45 minutes"},
      {"measurement": "time after administration at which concentration fell below 5 μM, WR-1065", "setting": "sc", "value": "approximately 60 minutes"},
      {"measurement": "peak levels (maximum whole blood concentration)", "setting": "male, iv", "value": "about 23 μM"},
      {"measurement": "maximum blood levels", "setting": "male, sc", "value": "~4", "unit": "µM"},
      {"measurement": "time to maximum and sustained whole blood concentration", "setting": "male, sc", "value": "15 to 45", "unit": "min"}
    ]}
  ]
}
